Patent US12252488B2 (Nimbus Saturn, Inc., priority 2021, dated 2025)

Target: T1, HPK1 (Homo sapiens, UniProt Q92918)
T1 construct: purchased Invitrogen
Experiment: HPK1 biochemical enzyme assay (microfluidic mobility shift assay)
Settings: 1000 uM (1 mM) ATP; Caliper mobility shift; 1.5 nM HPK1; 30 min preincubation; read-out: HPK1 1000UMATP caliper IC50
Procedure, shortened: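 IC50 values, grouped into activity categories, come from 10-point titrations (top final 3 μM) preincubated 30 min with 1.5 nM enzyme and substrate at pH 7.4. ATP (1 mM), substrate (1 μM) and MgCl2 (5 mM) then added; after 60 min at RT, product separated by microfluidic mobility shift.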

T1 sequence (Q92918 whole entry): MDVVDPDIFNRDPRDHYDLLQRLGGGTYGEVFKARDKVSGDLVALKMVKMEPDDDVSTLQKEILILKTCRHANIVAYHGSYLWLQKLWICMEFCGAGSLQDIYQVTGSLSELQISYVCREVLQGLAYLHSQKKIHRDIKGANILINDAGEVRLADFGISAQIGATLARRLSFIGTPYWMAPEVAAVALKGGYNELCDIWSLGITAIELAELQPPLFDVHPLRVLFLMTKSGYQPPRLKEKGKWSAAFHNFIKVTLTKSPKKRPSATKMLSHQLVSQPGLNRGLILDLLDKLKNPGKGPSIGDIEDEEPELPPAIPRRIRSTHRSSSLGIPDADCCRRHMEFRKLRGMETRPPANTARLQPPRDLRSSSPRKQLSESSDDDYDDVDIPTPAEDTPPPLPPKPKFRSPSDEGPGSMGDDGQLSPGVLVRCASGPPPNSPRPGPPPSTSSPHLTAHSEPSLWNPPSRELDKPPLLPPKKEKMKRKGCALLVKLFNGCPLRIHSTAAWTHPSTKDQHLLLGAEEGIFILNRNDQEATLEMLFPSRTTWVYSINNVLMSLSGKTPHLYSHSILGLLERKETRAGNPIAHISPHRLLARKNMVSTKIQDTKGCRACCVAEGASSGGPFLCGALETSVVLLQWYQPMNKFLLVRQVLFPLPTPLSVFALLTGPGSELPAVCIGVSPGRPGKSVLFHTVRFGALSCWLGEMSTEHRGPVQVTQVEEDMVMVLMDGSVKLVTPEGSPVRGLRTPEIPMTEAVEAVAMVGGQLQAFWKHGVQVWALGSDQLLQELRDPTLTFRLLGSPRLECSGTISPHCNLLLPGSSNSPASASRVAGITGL

Row | IC50 | Compound
1 | > 1000 nM | Cc1nc2cc(-c3cc(Nc4ccc(N5CCC(O)CC5)cn4)c4c(=O)[nH]ccc4n3)c(F)cc2o1 [I-182, 2-(6-fluoro-2-methyl-1,3-benzoxazol-5-yl)-4-[[5-(4-hydroxy-1-piperidyl)-2-pyridyl]amino]-6H-1,6-naphthyridin-5-one]
2 | ≤ 100 nM | O=c1[nH]ccc2nc(-c3cccc(CN4CCCCC4)c3F)cc(Nc3ccc(N4CCC(O)CC4)cn3)c12 [I-183, 2-[2-fluoro-3-(1-piperidyl-methyl)phenyl]-4-[[5-(4-hydroxy-1-piperidyl)-2-pyridyl]amino]-6H-1,6-naphthyridin-5-one]
3 | > 1000 nM | CN1CCN(c2ccc(Nc3cc(-c4ccc(NC(=O)C5CCCCC5)cc4F)nc4cc[nH]c(=O)c34)nc2)CC1 [I-184, N-[3-fluoro-4-[4-[[5-(4-methyl-piperazin-1-yl)-2-pyridyl]amino]-5-oxo-6H-1,6-naphthyridin-2-yl]phenyl] cyclohexane carboxamide]
4 | 100 to 1000 nM | COc1cccc(F)c1-c1cc(Nc2ccc(N3CCC(O)CC3)cn2)c2c(=O)[nH]ccc2n1 [I-185, 2-(2-fluoro-6-methoxy-phenyl)-4-[[5-(4-hydroxy-1-piperidyl)-2-pyridyl]amino]-6H-1,6-naphthyridin-5-one]
5 | ≤ 100 nM | CC(C)Oc1cc(-c2cc(Nc3ccc(N4CCC(O)CC4)cn3)c3c(=O)[nH]ccc3n2)c(F)cc1C(=O)N1CCCCC1 [I-186, 2-[2-fluoro-5-isopropoxy-4-(piperidine-1-carbonyl)phenyl]-4-[[5-(4-hydroxy-1-piperidyl)-2-pyridyl]amino]-6H-1,6-naphthyridin-5-one]
6 | 100 to 1000 nM | COc1cc(-c2cc(Nc3ccc(N4CCNCC4)cn3)c3c(=O)[nH]ccc3n2)ccc1C(=O)N1CCCCC1 [I-187, 2-[3-methoxy-4-(piperidine-1-carbonyl)phenyl]-4-[(5-piperazin-1-yl-2-pyridyl)amino]-6H-1,6-naphthyridin-5-one]
7 | ≤ 100 nM | COCCOC1CN(c2ccc(Nc3cc(-c4cc(OC)c(C(=O)N5CCCCC5)cc4F)nc4cc[nH]c(=O)c34)nc2)C1 [I-188, 2-[2-fluoro-5-methoxy-4-(piperidine-1-carbonyl)phenyl]-4-[[5-[3-(2-methoxy-ethoxy)azetidin-1-yl]-2-pyridyl]amino]-6H-1,6-naphthyridin-5-one]
8 | 100 to 1000 nM | COCCOC1CN(c2ccc(Nc3cc(-c4ccc(NC(=O)C5CCCCC5)cc4F)nc4cc[nH]c(=O)c34)nc2)C1 [I-189, N-[3-fluoro-4-[4-[[5-[3-(2-methoxy-ethoxy)azetidin-1-yl]-2-pyridyl]amino]-5-oxo-6H-1,6-naphthyridin-2-yl]phenyl] cyclohexane carboxamide]
9 | 100 to 1000 nM | COc1cc(-c2cc(Nc3ccc(N4[C@H](C)COC[C@H]4C)cn3)c3c(=O)[nH]ccc3n2)c(F)cc1C(=O)N1CCCCC1 [I-190, 4-[[5-[(3R, 5R)-3,5-dimethyl-morpholin-4-yl]-2-pyridyl]amino]-2-[2-fluoro-5-methoxy-4-(piperidine-1-carbonyl)phenyl]-6H-1,6-naphthyridin-5-one]
10 | ≤ 100 nM | C[C@@H]1COC[C@@H](C)N1c1ccc(Nc2cc(-c3ccc(NC(=O)C4CCCCC4)cc3F)nc3cc[nH]c(=O)c23)nc1 [I-191, N-[4-[4-[[5-[(3R,5R)-3,5-dimethyl-morpholin-4-yl]-2-pyridyl]amino]-5-oxo-6H-1,6-naphthyridin-2-yl]-3-fluoro-phenyl] cyclohexane-carboxamide]
11 | 100 to 1000 nM | O=c1[nH]ccc2nc(-c3cc4c(cc3F)CCC4O)cc(Nc3ccc(N4CCC(O)CC4)cn3)c12 (stereo not drawn) [I-192, 2-(6-fluoro-3-hydroxy-indan-5-yl)-4-[[5-(4-hydroxy-1-piperidyl)-2-pyridyl]amino]-6H-1,6-naphthyridin-5-one]
12 | 100 to 1000 nM | COc1cc(-c2cc(Nc3ccc(N4CCN(C)CC4)cn3)c3c(=O)[nH]ccc3n2)c(F)cc1C(=O)N1CCCCC1 [I-193, 2-[2-fluoro-5-methoxy-4-(piperidine-1-carbonyl)phenyl]-4-[[5-(4-methyl-piperazin-1-yl)-2-pyridyl]amino]-6H-napthyridin-5-one]
13 | ≤ 100 nM | Cc1cc(-c2cc(Nc3ccc(N4CCC(O)CC4)cn3)c3c(=O)[nH]ccc3n2)c(F)cc1CN1CCCCC1 [I-194, 2-[2-fluoro-5-methyl-4-(1-piperidyl-methyl)phenyl]-4-[[5-(4-hydroxy-1-piperidyl)-2-pyridyl]amino]-6H-1,6-naphthyridin-5-one]
14 | > 1000 nM | COc1cc(-c2cc(Nc3ccc(N4CCC(O)CC4)cn3)c3c(=O)[nH]ccc3n2)ccc1C(=O)N1CCCCC1 [I-195, 4-[[5-(4-hydroxy-1-piperidyl)-2-pyridyl]amino]-2-[3-methoxy-4-(piperidine-1-carbonyl)phenyl]-6H-1,6-naphthyridin-5-one]
15 | 100 to 1000 nM | CCOc1cc(-c2cc(Nc3ccc(N4CCC(O)CC4)cn3)c3c(=O)[nH]ccc3n2)c(F)cc1C(=O)N1CCCCC1 [I-196, 2-[5-ethoxy-2-fluoro-4-(piperidine-1-carbonyl)phenyl]-4-[[5-(4-hydroxy-1-piperidyl)-2-pyridyl]amino]-6H-1,6-naphthyridin-5-one]

The next lines start with the compound.

Row | Compound | IC50
16 | Cc1cc(F)c(-c2cc(Nc3ccc(N4CCC(O)CC4)cn3)c3c(=O)[nH]ccc3n2)cc1C(=O)N1CCCCC1 [I-167, 2-[2-fluoro-4-methyl-5-(piperidine-1-carbonyl)phenyl]-4-[[5-(4-hydroxy-1-piperidyl)-2-pyridyl]amino]-6H-1,6-naphthyridin-5-one] | ≤ 100 nM
17 | Cc1n[nH]c2cc(F)c(-c3cc(Nc4ccc(N5CCNCC5)cn4)c4c(=O)[nH]ccc4n3)cc12 [I-168, 2-(6-fluoro-3-methyl-1H-indazol-5-yl)-4-[[5-piperazin-1-yl-2-pyridyl)amino]-6H-1,6-naphthyridin-5-one] | ≤ 100 nM
18 | COc1cc(-c2cc(Nc3ccc(N4CCC(F)(F)CC4)cn3)c3c(=O)[nH]ccc3n2)c(F)cc1C(=O)N1CCCCC1 [I-169, 4-[[5-(4,4-difluoro-1-piperidyl)-2-pyridyl]amino]-2-[2-fluoro-5-methoxy-4-(piperidine-1-carbonyl)phenyl]-6H-1,6-naphthyridin-5-one] | 100 to 1000 nM
19 | COc1cc(-c2cc(Nc3ccc(N4C[C@H]5CC[C@@H](C4)O5)cn3)c3c(=O)[nH]ccc3n2)c(F)cc1C(=O)N1CCCCC1 [I-170, 2-[2-fluoro-5-methoxy-4-(piperidine-1-carbonyl)phenyl]-4-[[5-[(1R,5S)-8-oxa-3-azabicyclo [3.2.1]octan-3-yl]-2-pyridyl]amino]-6H-1,6-naphthyridin-5-one] | 100 to 1000 nM
20 | O=c1[nH]ccc2nc(-c3cccc(CN4CCOCC4)c3F)cc(Nc3ccc(N4CCC(O)CC4)cn3)c12 [I-171, 2-[2-fluoro-3-(morpholino-methyl)phenyl]-4-[[5-(4-hydroxy-1-piperidyl)-2-pyridyl]amino]-6H-1,6-naphthyridin-5-one] | 100 to 1000 nM
21 | O=C(Nc1ccc(-c2cc(Nc3ccc(N4CCC(F)(F)CC4)cn3)c3c(=O)[nH]ccc3n2)c(F)c1)C1CCCCC1 [I-172, N-[4-[4-[[5-(4,4-difluoro-1-piperidyl)-2-pyridyl]amino]-5-oxo-6H-1,6-naphthyridin-2-yl]-3-fluoro-phenyl] cyclohexane-carboxamide] | > 1000 nM
22 | O=C(Nc1ccc(-c2cc(Nc3ccc(N4C[C@H]5CC[C@@H](C4)O5)cn3)c3c(=O)[nH]ccc3n2)c(F)c1)C1CCCCC1 [I-173, N-[3-fluoro-4-[4-[[5-[(1R,5S)-8-oxa-3-azabicyclo [3.2.1]octan-3-yl]-2-pyridyl]amino]-5-oxo-6H-1,6-naphthyridin-2-yl]phenyl]-cyclohexane-carboxamide] | 100 to 1000 nM
23 | COc1cc(-c2cc(Nc3ccc(N4CC(F)(F)C4)cn3)c3c(=O)[nH]ccc3n2)c(F)cc1C(=O)N1CCCCC1 [I-174, 4-[[5-(3,3-difluoro-azetidin-1-yl)-2-pyridyl]amino]-2-[2-fluoro-5-methoxy-4-(piperidine-1-carbonyl)phenyl]-6H-1,6-naphthyridin-5-one] | > 1000 nM
24 | COc1cc(-c2cc(Nc3ccc(N4CCNCC4)cn3)c3c(=O)[nH]ccc3n2)c(F)cc1C(=O)N1CCC1 [I-175, 2-[4-(azetidine-1-carbonyl)-2-fluoro-5-methoxy-phenyl]-4-[(5-piperazin-1-yl-2-pyridyl)amino]-6H-1,6-naphthyridin-5-one] | 100 to 1000 nM
25 | COc1cc(-c2cc(Nc3ccc(N4CCNCC4)cn3)c3c(=O)[nH]ccc3n2)c(F)cc1C(=O)N(C)C [I-176, 5-fluoro-2-methoxy-N,N-dimethyl-4-[5-oxo-4-[(5-piperazin-1-yl-2-pyridyl)amino]-6H-1,6-naphthyridin-2-yl] benzamide] | ≤ 100 nM
26 | O=c1[nH]ccc2nc(-c3cc(CN4CCCC4)ccc3F)cc(Nc3ccc(N4CCC(O)CC4)cn3)c12 [I-177, 2-[2-fluoro-5-(pyrrolidin-1-ylmethyl)phenyl]-4-[[5-(4-hydroxy-1-piperidyl)-2-pyridyl]amino]-6H-1,6-naphthyridin-5-one] | ≤ 100 nM
27 | Cc1nc2cc(-c3cc(Nc4ccc(N5CCNCC5)cn4)c4c(=O)[nH]ccc4n3)c(F)cc2o1 [I-178, 2-(6-fluoro-2-methyl-1,3-benzoxazol-5-yl)-4-[(5-piperazin-1-yl-2-pyridyl)amino]-6H-1,6-naphthyridin-5-one] | 100 to 1000 nM
28 | O=C(Nc1ccc(-c2cc(Nc3ccc(N4CCC(O)CC4)cn3)c3c(=O)[nH]ccc3n2)c(F)c1)C1CC2CCC1C2 (stereo not drawn) [I-179, N-[3-fluoro-4-[4-[[5-(4-hydroxy-1-piperidyl)-2-pyridyl]amino]-5-oxo-6H-1,6-naphthyridin-2-yl]phenyl] norbornane-2-carboxamide] | 100 to 1000 nM
29 | CN1CCN(Cc2ccc(-c3cc(Nc4ccc(N5CCC(O)CC5)cn4)c4c(=O)[nH]ccc4n3)c(F)c2)CC1 [I-180, 2-[2-fluoro-4-[(4-methyl-piperazin-1-yl)methyl]phenyl]-4-[[5-(4-hydroxy-1-piperidyl)-2-pyridyl]amino]-6H-1,6-naphthyridin-5-one] | ≤ 100 nM
30 | O=c1[nH]ccc2nc(-c3ccc(CN4CCOCC4)cc3F)cc(Nc3ccc(N4CCC(O)CC4)cn3)c12 [I-181, 2-[2-fluoro-4-(morpholino-methyl)phenyl]-4-[[5-(4-hydroxy-1-piperidyl)-2-pyridyl]amino]-6H-1,6-naphthyridin-5-one] | > 1000 nM
